The values that follow come from patent US12084434B2 (Scorpion Therapeutics, Inc., priority 2021, dated 2024).

In one assay the test system is T47D pAKT (S473), PI3Kα H1047R mutation present. In words: HTRF pAKT-T47D.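 Also: assay medium was RPMI with 10% FBS and 0.2 units/ml bovine insulin, without phenol red.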 Particulars: Homo sapiens, T47D, 1 h, read-out: T47D pAKT IC50 (nM), T47D.1 cells, pAKT (S473) HTRF, 1 hour. A general note: In TR-FRET formats the signal depends on donor and acceptor labels being close together.
Consider `Cc1c(C(NC(=O)Nc2cnc(N)nc2)C(F)(F)F)oc2c(Br)cc(F)cc12` (single isomer, unassigned) [Compound 215, 1-(2-aminopyrimidin-5-yl)-3-[1-(7-bromo-5-fluoro-3-methyl-1-benzofuran-2-yl)-2,2,2-trifluoroethyl]urea], for which the IC50 (as a rule, the concentration that gives 50% inhibition) was 1000 to 5000 nM.
On the same count and under the same terms, the figure for `Cc1c([C@@H](NC(=O)Nc2csc(C(N)=O)c2)C(C)C)oc2ccc(F)cc12` [Compound 123, (S)-4-(3-(1-(5-fluoro-3-methylbenzofuran-2-yl)-2-methylpropyl)ureido)thiophene-2-carboxamide] is 1000 to 5000 nM; for `Cc1c([C@@H](NC(=O)Nc2cnc(OCC3(O)CC3)nc2)C(C)C)oc2ccc(F)cc12` [Compound 152] it is less than 1000 nM; for `Cc1c([C@@H](NC(=O)Nc2cnc(N3C[C@@H](O)[C@@H]3C)nc2)C(C)C)oc2ccc(F)cc12` (relative stereo) [Compound 148, 3-[(1S)-1-(5-fluoro-3-methyl-1-benzofuran-2-yl)-2-methylpropyl]-1-{2-[(2R*,3R**)-3-hydroxy-2-methylazetidin-1-yl]pyrimidin-5-yl}urea] it is less than 1000 nM.
Take `Cc1c([C@@H](NC(=O)Nc2cnc(N3CC(C)(O)C3)nc2)C(F)(F)F)oc2ccc(F)cc12` [Compound 98, (R)-1-(2-(3-hydroxy-3-methylazetidin-1-yl)pyrimidin-5-yl)-3-(2,2,2-trifluoro-1-(5-fluoro-3-methylbenzofuran-2-yl)ethyl)urea]: the IC50 is less than 1000 nM.
On to `Cc1c([C@@H](NC(=O)Nc2cnc(N3CC(OC(F)F)C3)nc2)C(C)C)oc2ccc(F)cc12` [Compound 167, 1-{2-[3-(difluoromethoxy)azetidin-1-yl]pyrimidin-5-yl}-3-[(1S)-1-(5-fluoro-3-methyl-1-benzofuran-2-yl)-2-methylpropyl]urea], for which the IC50 is less than 1000 nM.
Regarding `CNC(=O)c1ncc(NC(=O)N[C@H](c2oc3ccc(F)cc3c2C)C(C)C)cn1` [Compound 77, (S)-5-(3-(1-(5-fluoro-3-methylbenzofuran-2-yl)-2-methylpropyl)ureido)-N-methylpyrimidine-2-carboxamide], the IC50 was 1000 to 5000 nM.
Still for that read-out and setting: the figure for `Cc1c([C@H](NC(=O)Nc2ccc3[nH]ncc3c2)C(F)(F)F)oc2c(F)cc(F)cc12` [Compound 193, 3-[(1S)-1-(5,7-difluoro-3-methyl-1-benzofuran-2-yl)-2,2,2-trifluoroethyl]-1-(1H-indazol-5-yl)urea] is more than 5000 nM.
The same measure, in the same setting: the figure for `CCC1(O)CN(c2ncc(NC(=O)N[C@H](c3oc4ccc(F)cc4c3C)C(C)C)cn2)C1` [Compound 144] is less than 1000 nM.
The same measure, in the same setting: the figure for `Cc1c([C@@H](NC(=O)Nc2cnc(N3CCS(=O)(=O)CC3)nc2)C(C)C)oc2ccc(F)cc12` [Compound 146, 1-[2-(1,1-dioxo-1lambda6-thiomorpholin-4-yl)pyrimidin-5-yl]-3-[(1S)-1-(5-fluoro-3-methyl-1-benzofuran-2-yl)-2-methylpropyl]urea] is less than 1000 nM; for `Cc1c(C(NC(=O)Nc2cnc(N3CC(F)C3)nc2)C(F)(F)F)oc2c(F)cc(F)cc12` (single isomer, unassigned) [Compound 225, 1-(1-(5,7-difluoro-3-methylbenzofuran-2-yl)-2,2,2-trifluoroethyl)-3-(2-(3-fluoroazetidin-1-yl)pyrimidin-5-yl)urea] it is 1000 to 5000 nM.
With `Cc1c([C@@H](NC(=O)Nc2cnc(N)nc2)C2(F)CC2)oc2ccc(F)cc12` [Compound 81, (R)-1-(2-aminopyrimidin-5-yl)-3-((5-fluoro-3-methylbenzofuran-2-yl)(1-fluorocyclopropyl)methyl)urea], the concentration for half-maximal inhibition (IC50) is less than 1000 nM.
Consider `Cc1c([C@@H](NC(=O)Nc2cnc(N3C[C@H](O)[C@H]3C)nc2)C(F)(F)F)oc2ccc(F)cc12` [Compound 169], for which the IC50 was less than 1000 nM.
Same read-out and setting: the figure for `Cc1c([C@@H](NC(=O)Nc2cnc(N3CC(C)(O)C3)nc2)C(C)C)oc2ccc(F)cc12` [Compound 96, (S)-1-(1-(5-fluoro-3-methylbenzofuran-2-yl)-2-methylpropyl)-3-(2-(3-hydroxy-3-methylazetidin-1-yl)pyrimidin-5-yl)urea] is less than 1000 nM.
For the compound `Cc1c([C@@H](NC(=O)Nc2cnc(NCC(N)=O)nc2)C(C)C)oc2ccc(F)cc12` [Compound 134, (S)-2-((5-(3-(1-(5-fluoro-3-methylbenzofuran-2-yl)-2-methylpropyl)ureido)pyrimidin-2-yl)amino)acetamide], the IC50 is less than 1000 nM.
As to `Cc1c([C@@H](NC(=O)Nc2cnc(C(=O)N(C)C)s2)C(C)C)oc2ccc(F)cc12` [Compound 121, (S)-5-(3-(1-(5-fluoro-3-methylbenzofuran-2-yl)-2-methylpropyl)ureido)-N,N-dimethylthiazole-2-carboxamide], the IC50 lay within 1000 to 5000 nM.
On to `Cc1c([C@H](NC(=O)Nc2cnc(N3CC(C)(O)C3)nc2)C(F)(F)F)oc2c(F)cc(F)cc12` (single isomer, unassigned) [Compound 93], for which the IC50 is less than 1000 nM.
`Cc1c([C@@H](NC(=O)Nc2cnc(N3CC[C@@H](O)C3)nc2)C(F)(F)F)oc2c(F)cc(F)cc12` [Compound 208]: the IC50 was less than 1000 nM.
As to `Cc1c([C@@H](NC(=O)Nc2cnc(N3CC4(COC4)C3)nc2)C(C)C)oc2ccc(F)cc12` [Compound 135], the IC50 was less than 1000 nM.
In the case of `COC1CN(c2ncc(NC(=O)N[C@H](c3oc4ccc(F)cc4c3C)C(C)C)cn2)C1` [Compound 138], the IC50 was less than 1000 nM.

The same assay, now with this note: read-out: T47D pAKT IC50; T47D.1 cells, pAKT (S473) HTRF, 1 hour.
Consider `Cc1c(C(NC(=O)Nc2cnc(N3CC4(COC4)C3)nc2)C(F)(F)F)oc2c(F)cc(F)cc12` (racemic) [Compound 171, 1-(2-(2-oxa-6-azaspiro[3.3]heptan-6-yl)pyrimidin-5-yl)-3-(1-(5,7-difluoro-3-methylbenzofuran-2-yl)-2,2,2-trifluoroethyl)urea], for which the IC50 is more than 5000 nM.
On the same count and under the same terms, the figure for `Cc1c(C(NC(=O)Nc2ccc(N3CC(O)C3)nc2)C(F)(F)F)oc2c(F)cc(F)cc12` (racemic) [Compound 179, 3-[1-(5,7-difluoro-3-methyl-1-benzofuran-2-yl)-2,2,2-trifluoroethyl]-1-[6-(3-hydroxyazetidin-1-yl)pyridin-3-yl]urea] is more than 5000 nM; for `Cc1c(C(NC(=O)Nc2cnc(N[C@H](C)CO)nc2)C(F)(F)F)oc2c(F)cc(F)cc12` (single isomer, unassigned) [Compound 187] it is more than 5000 nM.
Same read-out and setting: the figure for `Cc1c(C(NC(=O)Nc2ccc(N)nc2)C(F)(F)F)oc2c(F)cc(F)cc12` (centres unmarked) [Compound 181] is more than 5000 nM; for `Cc1c(C(NC(=O)Nc2cnc(N3CC(C(=O)O)C3)nc2)C(F)(F)F)oc2c(F)cc(F)cc12` (single isomer, unassigned) [Compound 198, 1-[5-({[1-(5,7-difluoro-3-methyl-1-benzofuran-2-yl)-2,2,2-trifluoroethyl]carbamoyl}amino)pyrimidin-2-yl]azetidine-3-carboxylic acid] it is more than 5000 nM; for `Cc1c(C(NC(=O)Nc2cnc(N3CC(O)C3)nc2)C(F)(F)F)oc2c(F)cc(Cl)cc12` (racemic) [Compound 157, 3-[1-(5-chloro-7-fluoro-3-methyl-1-benzofuran-2-yl)-2,2,2-trifluoroethyl]-1-[2-(3-hydroxyazetidin-1-yl)pyrimidin-5-yl]urea] it is less than 1000 nM.
As for `Cc1c(C(NC(=O)Nc2cnc(N3CC(O)C3)nc2)C(F)(F)F)oc2c(F)cc(Cl)cc12` (racemic) [Compound 158, 3-[1-(5-chloro-7-fluoro-3-methyl-1-benzofuran-2-yl)-2,2,2-trifluoroethyl]-1-[2-(3-hydroxyazetidin-1-yl)pyrimidin-5-yl]urea], the IC50 is more than 5000 nM.
Regarding `Cc1c(C(NC(=O)Nc2cnc(N3CCNC(=O)C3)nc2)C(F)(F)F)oc2c(F)cc(F)cc12` (single isomer, unassigned) [Compound 189, 1-(1-(5,7-difluoro-3-methylbenzofuran-2-yl)-2,2,2-trifluoroethyl)-3-(2-(3-oxopiperazin-1-yl)pyrimidin-5-yl)urea], the IC50 was less than 1000 nM.
For `Cc1c(C(NC(=O)Nc2ccc(N)cc2)C(F)(F)F)oc2c(F)cc(F)cc12` (single isomer, unassigned) [Compound 222, 1-(4-aminophenyl)-3-(1-(5,7-difluoro-3-methylbenzofuran-2-yl)-2,2,2-trifluoroethyl)urea], the concentration for half-maximal inhibition (IC50) is less than 1000 nM.
With `Cc1c(C(NC(=O)Nc2ccc(N3CC(O)C3)nc2)C(F)(F)F)oc2c(F)cc(F)cc12` (racemic) [Compound 180, 3-[1-(5,7-difluoro-3-methyl-1-benzofuran-2-yl)-2,2,2-trifluoroethyl]-1-[6-(3-hydroxyazetidin-1-yl)pyridin-3-yl]urea], the IC50 was less than 1000 nM.
For the compound `Cc1c(C(NC(=O)Nc2cnc(N)nc2)C(F)(F)F)oc2c(C)cc(F)cc12` (single isomer, unassigned) [Compound 214, 1-(2-aminopyrimidin-5-yl)-3-[2,2,2-trifluoro-1-(5-fluoro-3,7-dimethyl-1-benzofuran-2-yl)ethyl]urea], the IC50 was less than 1000 nM.
Still for that read-out and setting: the figure for `Cc1c([C@@H](NC(=O)Nc2cnc(NCC(C)(C)O)nc2)C(F)(F)F)oc2c(F)cc(F)cc12` [Compound 183] is less than 1000 nM; for `Cc1c([C@H](NC(=O)Nc2cnc(NCC(C)(C)O)nc2)C(F)(F)F)oc2c(F)cc(F)cc12` [Compound 184] it is more than 5000 nM.
`Cc1c(C(NC(=O)Nc2cnc(N)nc2)C(F)(F)F)oc2c(C#N)cc(F)cc12` (single isomer, unassigned) [Compound 220, 1-(2-aminopyrimidin-5-yl)-3-[1-(7-cyano-5-fluoro-3-methyl-1-benzofuran-2-yl)-2,2,2-trifluoroethyl]urea]: the IC50 is less than 1000 nM.
On the same count and under the same terms, the figure for `Cc1c(C(NC(=O)Nc2cnc(N3CCNC(=O)C3)nc2)C(F)(F)F)oc2c(F)cc(F)cc12` (single isomer, unassigned) [Compound 190, 1-(1-(5,7-difluoro-3-methylbenzofuran-2-yl)-2,2,2-trifluoroethyl)-3-(2-(3-oxopiperazin-1-yl)pyrimidin-5-yl)urea] is more than 5000 nM.
